Legend:
[1] = target: polyclonal serum anti-MBP antibodies isolated from immunized DA rats; assay: Surface plasmon resonance of autoAb binding to biotinylated MBP peptides and MBP; conditions: SPR, BiaCore T-200, antibodies 50 μg/ml, immobilized peptide or MBP; for Kd: read-out: effective dissociation constant
Experimental: To quantify autoAb recognition of the identified MBP epitopes, and to confirm their sequence in vitro, the affinity of polyclonal serum anti-MBP antibodies isolated from immunized DA rats for biotinylated MBP peptides was determined by surface plasmon resonance (FIG. 2B). The effective dissociation constant of the full-length MBP protein (1.5×10^−8) was determined to be nanomolar, as were the dissociation constants for MBP encephalitogenic (9.6×10^−9) and C-terminal (8.4×10^−9) fragments, verifying their identity as major B cell epitopes.
All surface plasmon resonance measurements were performed on BiaCore T-200 apparatus (GE Healthcare, US). Biotinylated MBP peptides (50 μg/ml) (listed on FIG. 2) and MBP were immobilized on SA and CM-5 chips respectively. All procedures were performed according manufacture's recommendations. Flow rate of HBS-EP buffer was kept as 10 μl/min during all measurements. Antibodies (50 μg/ml) were tested on both chips with standard association/dissociation time 300/300 s. Dissociation constants were calculated using BiaCore T-200 Evaluation Software 1.0.

[2] = tested on: experimental autoimmune encephalomyelitis (EAE) in DA rats; assay: EAE in DA rats treated with MBP peptides in mannosylated SUV liposomes (Example 10); assay type: in vivo
Experimental: All animal studies were carried out in animal facilities of Assaf Harofeh Medical Center (Zerifin, Israel) using standard approved practices for animal care. Induction of EAE was performed in 8-9 weeks Dark Agouti (DA) female rats. Briefly, rats were injected intradermally at the base of the tail with a total volume of 200 μl of inoculum, containing […] of MBP(63-81) (ANASPEC), in saline mixed (1:1) with CFA, (incomplete Freund's adjuvant (IFA), Sigma), and 1 mg MT (strain H37 RA; Difco Laboratories, Detroit, Mich.). Animals developing symptoms of MS were included to the study. Rats were treated with different liposomes formulations (Table 3), copaxone, or placebo (vehicle) under similar conditions for 6 days. All formulations were administrated by one subcutaneous injection per day. Animals were followed up till day 28th post EAE induction. Clinical signs score was performed daily during all study periods. Score gradation was the following: 0—Normal 1—tail weakness, 2—hind leg weakness or paralysis, 3—hind leg paralysis, dragging hind limbs, 4—complete paralysis, unable to move, 5—death.
Liposomes were assembled from a mixture of egg phosphatidylcholine (PC) and one molar percent mannosylated DOG (ManDOG) (Durova OM, supra). Assembly of SUV liposomes was performed as illustrated in FIG. 3: (i) formation of irregular lipid layers during evaporation of organic solvent, followed by re-hydration leading to the multi-layer multilamellar vesicle (MLV) liposomes formation; (ii) high-pressure homogenization resulting in formation of empty SUV; (iii) freeze drying of SUV liposomes with peptides—at this stage peptides are located between collapsed SUV liposomes; and (iv) encapsulation of peptides during second re-hydration into the SUV liposomes with an average diameter of approximately 60-100 nm, containing 1.0% mannose residues on their surface. Four formulations were used for this study: each B cell epitope MBP peptide (MBP1, MBP2, and MBP3) individually and a 1:1:1 mixture (by mass) of all three peptides.
Small unilamellar vesicles (SUV) were prepared from egg phosphatidylcholine (PC) and mannosylated DOG (Espuelas S. et al., Synthesis of an amphiphilic tetraantennary mannosyl conjugate and incorporation into liposome carriers, 2003 Bioorg Med Chem Lett., August 4; 13(15):2557-60, the contents of which are hereby incorporated by reference in their entirety for all purposes) (1:100 molar ratio) by high pressure homogenization (Durova OM, supra). Briefly, lipid mixture (100 mg/ml) in CHCl3 was dried under vacuum, further re-suspended in Milli-Q water to a final lipid concentration 50 mg/ml, followed by high-pressure homogenization (20,000 psi). Resulting SUV were mixed with peptides (lipid to peptide ratio 330:1) together with excess sugar (lactose to lipid ratio 3:1) with subsequent freeze-drying. Following rehydration under controlled conditions, the resulting SUV liposomes were washed by centrifugation to remove non-incorporated materials. The washed pellets were re-suspended in PBS to the required dose volume. Peptide incorporation was estimated on the basis of reversed-phase HPLC using linear gradient of acetonitrile applied on C18 column. The z-average diameter and zeta potential of liposomes were measured on a Brookhaven ZetaPlus zetasizer at 25° C. by diluting […] of the dispersion to the required volume with 1 mM PBS or appropriate media.
To test the therapeutic potential of the four formulations, DA rates presenting with induced EAE were subcutaneously injected with one of the four mannosylated liposomal formulations, copaxone (positive control), free (un-encapsulated) MBPI peptide (negative control), and empty mannosylated liposomes (vehicle control; Table 3).
Treatment of each rat was initiated at the first sign of EAE clinical manifestation. […]

[3] = tested on: EAE-induced DA rats; assay: EAE-induced DA rat model, paralysis score and mortality (DA-EAE-28-01, Example 12); assay type: in vivo; conditions: daily s.c. injection, 6 total
Experimental: Each of the seven formulations being evaluated was provided as a lyophilized powder and stored at 4° C. Rehydration of each daily group dose was done with water for injection according to Table 6. MBP peptide formulations were re-suspended in water for injection (Cure Medical) and copaxone (Teva LTD) was diluted with Saline to a final concentration of 150 μg/mL. Each subject animal was administered the test formulation for 6 consecutive days by subcutaneous injection.
9 week old Dark Agouti (DA) female rats (Harlan Laboratories, Inc.), weighing between 125 and 145 grams were used as the test subjects. The health status of the animals used in this study was examined on arrival. Only animals in good health were acclimatized to laboratory conditions and were used in the study. Animals were provided Protein Rodent Diet (Teklad) ad libitum and free access to drinking water. Animals were housed in a controlled environment at between 20° C. and 24° C. with a relative humidity of 30-70% and a 12 hr light/12 hr dark cycle. Animals were randomly assigned to their respective test group. This study was performed following the review by the Committee for Ethical Conduct in the Care and Use of Laboratory Animals of the Assaf Harofeh medical center, Beer Yaakov, Ethical Committee number: 68/2009.
For induction of EAE, rats were intradermally injected at the base of the tail with a total volume of 200 μl of inoculum containing 50 μg of MBP(63-81) (ANASPEC), in saline mixed (1:1) with CFA, (IFA, Sigma) and 1 mg Mt (strain H37 RA; Difco Laboratories, Detroit, Mich.).
The rats were evaluated up daily starting 24 hours after immunization. […]
7-10 days post EAE induction, 54 animals were divided to 9 groups (6 rats in each), and blood was collected from 2 rats of each group before the initiation of the treatment. […] The animals were maintained and evaluated until day 28th post EAE-induction. […]
Animals were observed individually and clinical signs were recorded once daily during all study periods. […] The body weight of each animals was determined daily during all study periods. […]

In the case of “MDHARHGFLPRH [biotinylated MBP fragment]”, the effective dissociation constant [1] is reported as “not detectable”.

For “QDENPVVHFFKNIV [MBP encephalitogenic fragment]”, the Kd [1] was 9.6 nM.

For “IFKLGGRDSRSGSPMARR [C-terminal fragment]”, the Kd [1] was 8.4 nM.

In the case of “GGDRGAPKRGSGKDSHH (MBP peptide) [MBP1, myelin basic protein fragment MBP(46-62), free un-encapsulated peptide]”, the “mean disease score course (FIG. 4)” value ([2]; 6 daily s.c. injections from first clinical sign) is reported as “did not provide any beneficial effects”, the Mortality ([2]; one s.c. injection per day, 6 injections, deaths/N) is reported as 1/15 and the “Median Cumulative Disease Score” value ([2]; one s.c. injection per day, 6 injections, doses per Table 3) is reported as 19.5. The “Median Maximal Disease Score (IQR)” value ([2]; one s.c. injection per day, 6 injections, doses per Table 3, score 0-5) was 3 (0.5)^2, the “Mortality Rate” value ([3]; 54 EAE induced DA rats, peptide dose 50 μg (mixtures 150 μg), deaths/N) was 1/6 and the “efficacy, overall disease score” value ([3]; comparison between groups) was “comparable”.

B1: full-length MBP protein: myelin basic protein, 18.5 kDa, 171 amino acids (protein)
chain: MASQKRPSQRHGSKYLATASTMDHARHGFLPRHRDTGILDSIGRFFGGDRGAPKRGSGKDSHHPARTAHYGSLPQKSHGRTQDENPVVHFFKNIVTPRTPPPSQGKGRGLSLSRFSWGAEGQRPGFGYGGRASDYKSAHKGFKGVDAQGTLSKIFKLGGRDSRSGSPMARR
modifications: MBP splice isoforms
notes: myelin basic protein, 18.5 kDa, 171 amino acids
Work on B1 yielded a Kd [1] of 15 nM.

— patent US20160175249A1, “Liposomes Containing Oligopeptide Fragments of Myelin Basic Protein, a Pharmaceutical Composition and a Method for Treatment of Multiple Sclerosis” (LIPOXEN TECHNOLOGIES LIMITED, priority 2009, published 2016)
